This is an account of results in patent US7999107B2, “Substituted pyrano[2,3-B]pyridine derivatives as cannabinoid-1 receptor modulators” (Merck Sharp & Dohme Corp., priority 2007, dated 2011).

Where two headings read alike, the source gives them in different places. A value given as a limit tells only on which side of the number the result lay.

Assay [1] has as its target T1, recombinant human CB1 receptor expressed in CHO cells (Homo sapiens, UniProt P21554). Put plainly: Cannabinoid Receptor-1 (CB1) Functional Activity Assay (cAMP). To be noted: forskolin-stimulated cAMP. The assay is classed as cell-based. The method, then: The functional activation of CB1 receptor is based on recombinant human CB1 receptor expressed in CHO cells (Felder et al, Mol. Pharmacol. 48: 443-450, 1995). To determine the agonist activity or inverse agonist activity of any test compound, 50 ul of CB1-CHO cell suspension are mixed with test compound and 70 ul assay buffer containing 0.34 mM 3-isobutyl-1-methylxanthine and 5.1 uM of forskolin in 96-well plates. The assay buffer is comprised of Earle's Balanced Salt Solution supplemented with 5 mM MgCl2, 1 mM glutamine, 10 mM HEPES, and 1 mg/mL bovine serum albumin. The mixture is incubated at room temperature for 30 minutes, and terminated by adding 30 ul/well of 0.5M HCl. The total intracellular cAMP level is quantitated using the New England Nuclear Flashplate and cAMP radioimmunoassay kit.

For assay [2], the target named is T1, recombinant human CB1 receptor expressed in CHO cells. Put plainly: Cannabinoid Receptor-1 (CB1) Functional Antagonist Assay. It is filed as cell-based. As to conditions: cAMP. The method, then: To determine the antagonist activity of test compound, the reaction mixture also contains 0.5 nM of the agonist CP55940 (or 50 nM of methanandamide), and the reversal of the CP55940 (or methanandamide) effect is quantitated with increasing concentration of the test compound. Intracellular cAMP is determined as described above. An IC50 value for the test compound is calculated from the titration curve.
Alternatively, a series of dose response curves for the agonist CP55940 (or methanandamide) is performed with increasing concentration of the test compound in each of the dose response curves, and a Schild analysis is carried to calculate the Kb value which is an estimation of test compound binding affinity.

Assay [3] concerns the target T2, recombinant human CB1 receptor (Homo sapiens, UniProt P21554).
T2 construct: expressed in transfected cells; host or cells: CHO cells (membranes)
Put plainly: Cannabinoid Receptor-1 (CB1) Binding Assay. The procedure: Binding affinity determination is based on recombinant human CB1 receptor expressed in Chinese Hamster Ovary (CHO) cells (Felder et al, Mol. Pharmacol. 48: 443-450, 1995). Total assay volume is 250 μl (240 μl CB1 receptor membrane solution plus 5 μl test compound solution plus 5 μl [3H]CP-55940 solution). Final concentration of [3H]CP-55940 is 0.6 nM. Binding buffer contains 50 mM Tris-HCl, pH7.4, 2.5 mM EDTA, 5 mM MgCl2, 0.5 mg/mL fatty acid free bovine serum albumin and protease inhibitors (Cat#P8340, from Sigma). To initiate the binding reaction, 5 μl of radioligand solution is added, the mixture is incubated with gentle shaking on a shaker for 1.5 h at 30° C. The binding is terminated by using 96-well harvester and filtering through GF/C filter presoaked in 0.05% polyethylenimine. The bound radiolabel is quantitated using scintillation counter. Apparent binding affinities for various compounds are calculated from IC50 values (DeBlasi et al., Trends Pharmacol Sci 10: 227-229, 1989).

[4] abbreviates: [3H]CP-55940 0.6 nM, CHO cell membranes, read-out: CB1 binding IC50.

T2 sequence (P21554 whole entry): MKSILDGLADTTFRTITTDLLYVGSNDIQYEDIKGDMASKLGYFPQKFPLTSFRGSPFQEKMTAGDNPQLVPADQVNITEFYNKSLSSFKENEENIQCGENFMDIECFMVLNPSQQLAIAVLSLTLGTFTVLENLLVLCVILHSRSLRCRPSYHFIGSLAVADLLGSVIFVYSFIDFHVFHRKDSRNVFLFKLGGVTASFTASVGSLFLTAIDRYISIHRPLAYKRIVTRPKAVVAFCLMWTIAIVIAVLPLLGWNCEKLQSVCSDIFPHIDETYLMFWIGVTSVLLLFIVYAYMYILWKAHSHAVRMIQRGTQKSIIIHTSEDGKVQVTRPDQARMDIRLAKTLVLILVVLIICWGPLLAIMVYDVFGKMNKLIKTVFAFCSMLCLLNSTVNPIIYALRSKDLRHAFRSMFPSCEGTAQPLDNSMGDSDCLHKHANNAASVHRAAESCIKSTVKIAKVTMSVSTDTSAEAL
T1 sequence (P21554 whole entry): as above

Take `O=C1CC2(CCCCC2)Oc2nc(-c3ccccc3Cl)c(-c3ccc(Cl)cc3)cc21` [Example 4, 7′-(2-Chlorophenyl)-6′-(4-chlorophenyl)spiro[cyclohexane-1,2′-pyrano[2,3-b]pyridin]-4′(3′H)-one]: the EC50 in assay [1] is less than 20 nM. Besides, the “functional character at CB1” value in assay [2] is given as “functional inverse agonists”. Further, the IC50 in assay [3] came out at 8 nM.
As to `CC(C)(C)C1CC(=O)c2cc(-c3ccc(Cl)cc3)c(-c3ccccc3Cl)nc2O1` (centres unmarked) [Example 12, 2-tert-Butyl-7-(2-chlorophenyl)-6-(4-chlorophenyl)-2,3-dihydro-4H-pyrano[2,3-b]pyridin-4-one], the EC50 in assay [1] was less than 20 nM. Moreover, the “functional character at CB1” value in assay [2] is on record as “functional inverse agonists”. Further, the IC50 in assay [3] (setting [4]) was determined as 2 nM.
For `CNC(=O)C(=O)NC1CC(C)(C)Oc2nc(-c3ccc(Cl)cc3Cl)c(-c3ccc(Cl)cc3)cc21` (centres unmarked) [Example 66, N-[6-(4-Chlorophenyl)-7-(2,4-dichlorophenyl)-2,2-dimethyl-3,4-dihydro-2H-pyrano[2,3-b]pyridin-4-yl]-N′-methylethanediamide], the EC50 in assay [1] was less than 20 nM. For the same compound, the “functional character at CB1” value in assay [2] is listed as “functional inverse agonists”. The IC50 in assay [3] (setting [4]) came to 2 nM.
Turning to `C[C@@H](O)C(=O)NC1CC(C)(C)Oc2nc(-c3ccc(Cl)cc3Cl)c(-c3ccc(Cl)cc3)cc21` (stereo partly drawn) [Example 96, (2R)-N-[6-(4-chlorophenyl)-7-(2,4-dichlorophenyl)-2,2-dimethyl-3,4-dihydro-2H-pyrano[2,3-b]pyridin-4-yl]-2-hydroxypropanamide], the “functional character at CB1” value in assay [2] is “functional inverse agonists”.
With `CN(C)C(=O)NC1CC(C)(C)Oc2nc(-c3ccc(Cl)cc3Cl)c(-c3ccc(Cl)cc3)cc21` (centres unmarked) [Example 111, N′-[6-(4-chlorophenyl)-7-(2,4-dichlorophenyl)-2,2-dimethyl-3,4-dihydro-2H-pyrano[2,3-b]pyridin-4-yl]-N,N-dimethylurea], the EC50 in assay [1] was less than 20 nM. For the same compound, the “functional character at CB1” value in assay [2] is listed as “functional inverse agonists”. In assay [3] (setting [4]), the IC50 worked out at 2 nM.
On the same counts, the results for `CC1(C)CC(Nc2ccccn2)c2cc(-c3ccc(Cl)cc3)c(-c3ccc(Cl)cc3Cl)nc2O1` (centres unmarked) [Example 245, 6-(4-Chlorophenyl)-7-(2,4-dichlorophenyl)-2,2-dimethyl-N-(pyridine-2-yl)-3,4-dihydro-2H-pyrano[2,3-b]pyridin-4-amine] are less than 20 nM, “functional inverse agonists” and 2 nM.
On the same counts, the results for `Cc1cc(NC2CC(C)(C)Oc3nc(-c4ccc(Cl)cc4Cl)c(-c4ccc(Cl)cc4)cc32)n[nH]1` (centres unmarked) [Example 246, 6-(4-Chlorophenyl)-7-(2,4-dichlorophenyl)-2,2-dimethyl-N-(5-methyl-1H-pyrazol-3-yl)-3,4-dihydro-2H-pyrano[2,3-b]pyridin-4-amine] are less than 20 nM, “functional inverse agonists” and 10 nM.
Turning to `Cc1cc(C(=O)N[C@@H]2CC(C)(C)Oc3nc(-c4ccc(Cl)cc4Cl)c(-c4ccc(Cl)cc4)cc32)n[nH]1` [Example 327, N-[(4R)-6-(4-Chlorophenyl)-7-(2,4-dichlorophenyl)-2,2-dimethyl-3,4-dihydro-2H-pyrano[2,3-b]pyridin-4-yl]-5-methyl-1H-pyrazole-3-carboxamide], in assay [2], the “functional character at CB1” value is listed as “functional inverse agonists”.

A word on the EC50: it is the concentration needed to bring the measured effect to its halfway point. As a reminder, the IC50 is the concentration that inhibits the measured activity by half.
